Results: patent publication US20240043474A1, “ANTI-INFLAMMATORY PEPTIDE FOR PREVENTING OR TREATING ATOPIC DERMATITIS” (AJOU UNIVERSITY INDUSTRY-ACADEMIC COOPERATION FOUNDATION, priority 2020, published 2024)
Entries after “also recorded” stand apart in the source; their conditions may differ. Square brackets hold non-standard residues; d marks the D form. Primed or numbered codes have the meaning given here. Ends that are not written are not given here. Peptide text beside a SMILES is read from it. * marks the point of attachment. PEG2′ = N-terminal cap of 2 polyethylene glycol units (PEG2); PEG4′ = N-terminal cap of 4 polyethylene glycol units (PEG4); 5FAM = O=C1OC2(c3ccc(O)cc3Oc3cc(O)ccc32)c2ccc(C(=O)*)cc21; Butanoyl(4-maleimido) = O=C1C=CC(=O)N1CCCC(=O)*; Stearoyl = CCCCCCCCCCCCCCCCCC(=O)*; Palmitoyl = CCCCCCCCCCCCCCCC(=O)*; Myristoyl = CCCCCCCCCCCCCC(=O)*; Hexanoyl = CCCCCC(=O)*

Legend:
[1] = test system: peritoneal macrophages; experiment: Fluorescence-expressing peritoneal macrophages after intraperitoneal fluorescently labeled peptide, FACS; type: in vivo, mouse
[2] = test system: lymph node cells; experiment: Intracellular expression and frequency of peptide in cultured lymph node cells, confocal microscopy and FACS; type: cell-based, mouse; details: 1 μg/mL, FIG. 7
[3] = test system: peritoneal macrophages; experiment: Intracellular expression and frequency of peptide in cultured peritoneal macrophages, confocal microscopy and FACS; type: cell-based, mouse; details: 1 μg/mL, FIG. 8
Method: Peritoneal macrophages were isolated from the same mouse used in FIG. 7 to culture the cell suspension. Anti-CD3 (1 μg/ml) antibodies were plated on a petri dish at room temperature for 3 hours and cells were inoculated (5×10^5 cells/well). After 1 hour, anti-CD28 antibodies (1 μg/ml), IL-23 (20 ng/ml), IL-6 (20 ng/ml), and TGF-β (5 ng/ml) were added.

[4] = Skin tissue penetrability, confocal microscopy of skin after topical fluorescent peptide; type: in vivo, mouse; details: 1 μg applied to skin of ICR mice, with or without needle scratch, skin collected 2 hours later; FIG. 5
Description: To determine the skin tissue penetration of the A900 peptide, peptide A900 peptide (A900-FAM) with fluorescent substance FAM (Carboxyfluorescein) attached to the N-terminus of A900 peptide was applied to the skin of ICR 4-week-old mice.

[5] = test system: IL-4, IL-31, IL-17; experiment: Cytokine expression in spleen by real-time PCR after treating atopic skin lesions with external preparation; type: in vivo, mouse; details: external preparation on skin lesions, FIG. 9
[6] = test system: IL-4R alpha, CCR3 and CTLA-4 positive cells; experiment: FACS of splenocytes from atopic dermatitis mice after external preparation for five days; type: in vivo, mouse; details: FIG. 2
Method: In order to identify whether the peptide that has the effect of alleviating atopic dermatitis inflammation has an immunoregulatory function, splenocytes and peripheral blood leukocytes (PBLs) were separately isolated after administrating the external preparation into the mouse skin for five days, surface staining was performed with antibodies for FACS, and then the frequency of cells expressing interleukin 4 receptor (IL-4R) alpha, C—C chemokine receptor type 3 (CCR3), and cytotoxic T-lymphocyte-associated protein 4 (CTLA-4) was analyzed via flow cytometry. Dupixent was administered in a form of a peritoneal injection and tested as a control group.

[7] = test system: IL-4; experiment: IL-4 expression in splenocytes of treated atopic dermatitis mice by real-time PCR; type: in vivo, mouse; details: FIG. 4
[8] = test system: cells secreting atopy associated cytokines; experiment: In vivo FACS of intracellular cytokines in PBLs after external preparation for 5 days in atopic mice; parameters: species or system mouse; details: external preparation 1 μg/ml for 5 days, compared to ADC mice given PBS, FIG. 13
Method: (§1) After removing hair from 6-week-old Balb/c male mice, application was performed with 1% DNCB 1 time/day for 2 days and 0.5% DNCB 1 time/day for 3 days for a total of 5 days, to induce atopic symptoms (N=5-8 mice for each group). After administering the external preparation to mouse skin for 5 days in mice having atopic symptoms, peripheral blood leukocytes (PBLs) were isolated and the frequency of each cytokine expressing cell was analyzed and compared after intracellular staining with antibodies for FACS. The control group was given with an anti-inflammatory moisturizing cream external preparation (5 times) and administered with an anti-mouse IL-4 receptor antibody (100 ug/mouse) intraperitoneal injection (1 time). A900, A900M, A900MAL, and A900PEG4 were used for peptides, and the concentration was set to 1 μg/ml. Cytokines were subjected to intracellular staining to measure the frequency of stained cell population.

[9] = test system: CD11b+Ly6G+, CD83+ and Foxp3+ positive cells; experiment: FACS of peripheral blood leukocytes (PBLs) from atopic dermatitis mice after peptide administration; type: in vivo, mouse; details: FIG. 3
[10] = test system: IL-4, IL-13, IL-21; experiment: Real-time PCR of cytokines in splenocytes and lymph node cells from atopic mice cultured with peptides; type: cell-based, mouse; details: 24 hours, compared to untreated control (ADC), FIGS. 11 and 12
[11] = test system: atopic dermatitis induced with dinitrochlorobenzene (DNCB); experiment: DNCB-induced atopic dermatitis mouse model, peptide applied as external preparation; type: in vivo; details: FIG. 1
Method: Experimental mice were bred in a 12-hour light/dark cycle, free of pathogens at a constant temperature of 23° C. and 55% humidity. After an adaptation period of several days, DNCB-induced atopic dermatitis was induced in mice by the following method.
First, the hair in the dorsal skin area was carefully shaved using a hair removal cream, and then 100 μL of 1% dinitrochlorobenzene (DNCB) dissolved in acetone was locally treated to exposed skin once a day for 3 days to sensitize the skin and induce atopic dermatitis.
A positive control group obtained by treating mice having atopic dermatitis with anti-inflammatory moisturizing cream (Control Cream) and Dupixent injection which is a therapeutic agent for atopic dermatitis was compared with a peptide (A900 peptide) treated group.

[12] = test system: CD4 T cells secreting atopy associated cytokines; experiment: Ex vivo FACS of PBMCs from atopic mice cultured with peptides; type: cell-based, mouse; details: 3 μg/ml, 24 hours, compared to untreated control group (ADC), FIG. 10
Method: After removing hair from 6-week-old Balb/c male mice, application was performed with 1% DNCB 1 time/day for 2 days and 0.5% DNCB 1 time/day for 3 days for a total of 5 days to induce atopic symptoms. PBMCs were isolated from atopic mice, seeded in 24 well plates, treated with peptides, cultured for 24 hours, and then analyzed by FACS. PBMCs isolated from normal mice and atopy-induced mice were used as control groups, and peptides were treated to PBMC cultures isolated from atopic mice. Dupixent was used for the peptide control group (Dupixent 5 μg/ml). A900, A900P, A900H, A900S, A900M, A900MAL, A900PEG2, and A900PEG4 were used as the peptides, and the concentration was set to 3 μg/ml. Surface was stained with anti-CD4 antibodies, cytokines were subjected to intracellular staining, and the frequency of double stained population was measured.

[13] = test system: IL-13, IL-4, TNF alpha, IL-17; experiment: Cytokines in mice having atopic dermatitis after peptide A900 treatment (summary statement); type: in vivo, mouse
[14] = test system: CD4 cells secreting IL-13 and IL-31; experiment: In vivo FACS of cytokine-expressing CD4 cells in PBLs after external preparation in atopic mice; parameters: species or system mouse; details: external preparation 1 μg/ml for 5 days, FIG. 14
Method: as §1
Peripheral blood leukocytes (PBLs) isolated from the same mice as in FIG. 13 were isolated and subjected to CD4 surface staining and intracellular staining with antibodies for FACS to analyze and compare the frequency of each cytokine-expressing CD4 cell.

[15] = external preparation for five days
[16] = PBLs of mice having atopic dermatitis

| Molecule | expression of IL-4 [5] | expression of IL-17 [5] | expression of IL-31 [5] | IL-4 expression [10] | IL-13 expression [10] | IL-21 expression [10] | frequency of CD4 T cells secreting atopy associated cytokines [12] | other results |
| --- | --- | --- | --- | --- | --- | --- | --- | --- |
| CC[C@H](C)[C@H](NC(=O)[C@H](CCC(=O)O)NC(=O)CNC(=O)[C@H](CS)NC(=O)[C@H](CCCNC(=N)N)NC(=O)[C@H](CC(C)C)NC(=O)[C@@H](NC(=O)[C@@H](NC(=O)[C@@H](NC(=O)[C@H](CS)NC(=O)CNC(=O)c1ccc2c(c1)C(=O)OC21c2ccc(O)cc2Oc2cc(O)ccc21)C(C)C)[C@@H](C)O)C(C)C)C(=O)N[C@H](C(=O)O)C(C)C [A900-FAM] (5FAM-GCVTVLRCGEIV-OH) | – | – | – | – | – | – | – | fluorescence-expressing cells ([1]; 3 μg into abdominal cavity, after 3 hours, FIG. 6): barely detected; peritoneal macrophages expressing fluorescence ([1]; 3 μg into abdominal cavity, at 30 minutes, FIG. 6): 50%; peritoneal macrophages expressing fluorescence ([1]; 3 μg into abdominal cavity, at 1 hour, FIG. 6): 23%; time the peptide is maintained in the cell ([1]; 3 μg intraperitoneally, cells in the abdominal cavity): more than 1 hour; cell frequency expressing peptide ([2]; 1-hour treated group): 20%; cell frequency expressing peptide ([2]; 24-hour treated group): 40%; cell frequency expressing peptide ([3]; 1-hour culture group): 10%; cell frequency expressing peptide ([3]; 24-hour culture group): 15%; skin tissue penetration (fluorescence in skin tissue) [4]: fluorescence was detected in both the epidermis and dermis |
| GCESEILCGEIV [A907] | inhibited | inhibited | inhibited | – | – | – | – | – |
| GCETELRCGEIV [A903] | inhibited | inhibited | inhibited | – | – | – | – | – |
| GCETVLRCGEIV [A901] | inhibited | inhibited | inhibited | – | – | – | – | – |
| GCLRCGEIV [A914] | inhibited | inhibited | inhibited | – | – | – | – | – |
| GCVTELRCGEIV [A902] | inhibited | inhibited | inhibited | – | – | – | – | – |
| GCVTVCGEIV [A911] | inhibited | inhibited | inhibited | – | – | – | – | – |
| GCVTVLRCGEIV [A900] | inhibited | inhibited | inhibited | inhibited | inhibited | inhibited | inhibited | degree of inhibition of IL-4R alpha, CCR3 and CTLA-4 positive cells compared with control administered group ([6]; control Dupixent peritoneal injection): more effective than that of the control administered group; frequency of CCR3 positive cells [6, 15]: tended to be inhibitive; also recorded: decreased; frequency of CTLA-4 positive cells [6, 15]: tended to be inhibitive; also recorded: decreased; frequency of IL-4R alpha positive cells [6, 15]: tended to be inhibitive; also recorded: decreased; IL-4 expression [7]: inhibited; frequency of cells secreting atopy associated cytokines [8]: inhibited; frequency of CD11b+Ly6G+ positive cells [9, 16]: inhibited; frequency of CD83+ positive cells [9, 16]: inhibited; frequency of Foxp3+ positive cells [9, 16]: increased; degree of inhibition of CD11b+Ly6G+ and CD83+ positive cells compared with control administered group ([9]; PBLs): more effective than in the control administered group; atopic dermatitis symptoms ([11]; external preparation applied to mice with DNCB-induced atopic dermatitis): alleviated; speed of appearance of the effect compared with control group ([11]; versus Control Cream / Dupixent injection positive control): faster than the control group; cytokines such as IL-13, IL-4, TNF alpha, and IL-17 [13]: reduced |
| Hexanoyl-GCVTVLRCGEIV (cysteine pairing not given here) [A900H] | – | – | – | inhibited | inhibited | inhibited | – | – |
| Maleimidobutyrol-GCVTVLRCGEIV ({Butanoyl(4-maleimido)}-GCVTVLRCGEIV; cysteine pairing not given here) [A900MAL] | – | – | – | inhibited | inhibited | inhibited | inhibited | frequency of cells secreting atopy associated cytokines [8]: inhibited; frequency of CD4 cells secreting IL-13 [14]: inhibited; frequency of CD4 cells secreting IL-31 [14]: inhibited |
| Myristoyl-GCVTVLRCGEIV (cysteine pairing not given here) [A900M] | – | – | – | inhibited | inhibited | inhibited | inhibited | frequency of cells secreting atopy associated cytokines [8]: inhibited |
| PEG2-GCVTVLRCGEIV ([PEG2′]GCVTVLRCGEIV; cysteine pairing not given here) [A900PEG2] | – | – | – | inhibited | inhibited | inhibited | – | – |
| PEG4-GCVTVLRCGEIV ([PEG4′]GCVTVLRCGEIV; cysteine pairing not given here) [A900PEG4] | – | – | – | inhibited | inhibited | inhibited | inhibited | frequency of cells secreting atopy associated cytokines [8]: inhibited |
| Palmitoyl-GCVTVLRCGEIV (cysteine pairing not given here) [A900P] | – | – | – | inhibited | inhibited | inhibited | inhibited | – |
| Stearoyl-GCVTVLRCGEIV (cysteine pairing not given here) [A900S] | – | – | – | – | – | – | inhibited | – |
